Assays:
[1] = biological target: Sodium-dependent serotonin transporter (Homo sapiens, UniProt P31645)
[2] = biological target: Delta-type opioid receptor (Homo sapiens, UniProt P41143)
[3] = biological target: T1, Type-1 angiotensin II receptor (Homo sapiens, UniProt P30556)
T1 sequence (P30556 whole entry): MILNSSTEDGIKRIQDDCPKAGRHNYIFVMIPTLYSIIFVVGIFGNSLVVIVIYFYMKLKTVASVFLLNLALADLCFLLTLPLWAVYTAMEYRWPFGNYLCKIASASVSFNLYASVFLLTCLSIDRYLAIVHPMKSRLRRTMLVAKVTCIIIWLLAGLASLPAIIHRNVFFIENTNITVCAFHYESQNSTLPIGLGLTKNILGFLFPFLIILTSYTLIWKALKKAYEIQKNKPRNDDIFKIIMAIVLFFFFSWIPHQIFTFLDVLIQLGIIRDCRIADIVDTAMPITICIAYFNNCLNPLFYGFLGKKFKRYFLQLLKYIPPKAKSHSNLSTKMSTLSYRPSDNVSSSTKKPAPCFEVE

[4] = biological target: T2, Equilibrative nucleoside transporter 1 (Homo sapiens, UniProt Q99808)
T2 sequence (Q99808 whole entry): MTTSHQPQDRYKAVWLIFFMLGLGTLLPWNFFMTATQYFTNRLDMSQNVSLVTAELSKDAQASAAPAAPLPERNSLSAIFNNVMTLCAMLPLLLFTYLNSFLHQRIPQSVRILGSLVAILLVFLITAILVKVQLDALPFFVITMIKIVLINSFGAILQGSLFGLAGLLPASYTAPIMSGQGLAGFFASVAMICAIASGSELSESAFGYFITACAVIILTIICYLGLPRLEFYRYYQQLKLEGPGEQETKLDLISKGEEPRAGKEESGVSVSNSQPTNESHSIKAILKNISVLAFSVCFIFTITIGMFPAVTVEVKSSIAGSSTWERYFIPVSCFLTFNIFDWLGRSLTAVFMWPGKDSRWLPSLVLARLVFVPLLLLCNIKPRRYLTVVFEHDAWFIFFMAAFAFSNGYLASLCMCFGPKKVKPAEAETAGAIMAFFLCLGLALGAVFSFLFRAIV

[5] = biological target: Voltage-dependent L-type calcium channel subunit alpha-1C (Rattus norvegicus, UniProt P22002); type: functional
[6] = biological target: Vasopressin V1a receptor (Homo sapiens, UniProt P37288)
[7] = biological target: 5-hydroxytryptamine receptor 2B (Homo sapiens, UniProt P41595); type: functional, cell-based
[8] = biological target: T3, Neuropeptide Y receptor type 1 (Homo sapiens, UniProt P25929)
T3 sequence (P25929 whole entry): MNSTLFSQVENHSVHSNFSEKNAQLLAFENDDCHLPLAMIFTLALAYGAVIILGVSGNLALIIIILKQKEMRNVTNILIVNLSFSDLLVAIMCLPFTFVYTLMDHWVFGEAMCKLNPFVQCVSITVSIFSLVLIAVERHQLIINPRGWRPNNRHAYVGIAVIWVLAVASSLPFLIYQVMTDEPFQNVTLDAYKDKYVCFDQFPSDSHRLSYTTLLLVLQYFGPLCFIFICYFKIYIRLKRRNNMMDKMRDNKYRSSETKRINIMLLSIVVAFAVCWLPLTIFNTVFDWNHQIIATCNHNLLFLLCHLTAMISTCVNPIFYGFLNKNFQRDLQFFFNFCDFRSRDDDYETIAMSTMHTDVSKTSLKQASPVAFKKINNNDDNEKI

[9] = biological target: T4, Endothelin-1 receptor (Homo sapiens, UniProt P25101)
T4 sequence (P25101 whole entry): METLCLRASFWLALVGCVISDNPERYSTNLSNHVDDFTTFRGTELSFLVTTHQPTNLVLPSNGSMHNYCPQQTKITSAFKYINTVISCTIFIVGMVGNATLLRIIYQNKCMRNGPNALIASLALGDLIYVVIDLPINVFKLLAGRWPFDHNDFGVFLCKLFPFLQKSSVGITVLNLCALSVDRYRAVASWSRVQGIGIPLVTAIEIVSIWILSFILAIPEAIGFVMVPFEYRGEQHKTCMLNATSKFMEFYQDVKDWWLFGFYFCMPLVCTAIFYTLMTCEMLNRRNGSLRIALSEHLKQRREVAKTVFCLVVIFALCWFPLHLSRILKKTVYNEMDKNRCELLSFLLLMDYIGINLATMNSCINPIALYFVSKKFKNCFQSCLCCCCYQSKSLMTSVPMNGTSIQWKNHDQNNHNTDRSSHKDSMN

[10] = biological target: 5-hydroxytryptamine receptor 2A (Homo sapiens, UniProt P28223); type: functional, cell-based
[11] = biological target: Glutamate receptor ionotropic, NMDA 1 (Rattus norvegicus, UniProt P35439)
[12] = biological target: Motilin receptor (Homo sapiens, UniProt O43193)
[13] = biological target: T5, Glucocorticoid receptor (Homo sapiens, UniProt P04150)
T5 sequence (P04150 whole entry): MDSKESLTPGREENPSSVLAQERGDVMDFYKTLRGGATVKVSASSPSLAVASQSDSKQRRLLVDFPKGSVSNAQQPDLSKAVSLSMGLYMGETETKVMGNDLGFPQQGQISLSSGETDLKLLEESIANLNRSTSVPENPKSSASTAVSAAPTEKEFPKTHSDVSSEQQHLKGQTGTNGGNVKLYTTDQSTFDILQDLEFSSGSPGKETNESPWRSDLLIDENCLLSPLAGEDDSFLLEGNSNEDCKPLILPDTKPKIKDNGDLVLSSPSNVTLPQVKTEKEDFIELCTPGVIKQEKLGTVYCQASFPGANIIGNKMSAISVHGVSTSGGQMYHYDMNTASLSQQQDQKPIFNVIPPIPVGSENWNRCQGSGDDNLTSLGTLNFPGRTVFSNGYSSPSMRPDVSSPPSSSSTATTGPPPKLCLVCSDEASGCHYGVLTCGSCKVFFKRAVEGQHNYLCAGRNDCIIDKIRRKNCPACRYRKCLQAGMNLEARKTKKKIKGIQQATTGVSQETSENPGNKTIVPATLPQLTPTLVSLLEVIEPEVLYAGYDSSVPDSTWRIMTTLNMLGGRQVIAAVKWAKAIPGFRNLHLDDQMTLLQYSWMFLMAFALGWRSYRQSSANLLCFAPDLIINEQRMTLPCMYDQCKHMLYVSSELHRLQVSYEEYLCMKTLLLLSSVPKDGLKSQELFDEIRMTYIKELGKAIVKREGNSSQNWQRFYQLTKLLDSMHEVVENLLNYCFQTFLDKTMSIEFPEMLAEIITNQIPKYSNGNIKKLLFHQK

[14] = biological target: Voltage-gated inwardly rectifying potassium channel KCNH2 (Homo sapiens, UniProt Q12809); type: functional; conditions: read-out: AC50
Further: assay procedure not described here.

Sequence of 5-hydroxytryptamine receptor 2A (P28223 whole entry): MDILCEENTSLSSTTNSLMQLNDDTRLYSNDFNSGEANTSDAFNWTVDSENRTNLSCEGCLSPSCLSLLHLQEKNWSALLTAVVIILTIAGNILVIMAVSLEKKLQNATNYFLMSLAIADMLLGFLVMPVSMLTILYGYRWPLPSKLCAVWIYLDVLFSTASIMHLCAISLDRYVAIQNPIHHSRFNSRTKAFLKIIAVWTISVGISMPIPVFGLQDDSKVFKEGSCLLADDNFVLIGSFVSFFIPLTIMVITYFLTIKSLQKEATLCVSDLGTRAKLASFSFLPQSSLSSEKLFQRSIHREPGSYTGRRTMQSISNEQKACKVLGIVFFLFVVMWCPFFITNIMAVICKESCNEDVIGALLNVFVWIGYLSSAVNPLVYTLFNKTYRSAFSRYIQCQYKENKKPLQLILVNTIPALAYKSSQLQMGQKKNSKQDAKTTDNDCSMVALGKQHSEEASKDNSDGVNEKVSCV
Sequence of Voltage-gated inwardly rectifying potassium channel KCNH2 (Q12809 whole entry): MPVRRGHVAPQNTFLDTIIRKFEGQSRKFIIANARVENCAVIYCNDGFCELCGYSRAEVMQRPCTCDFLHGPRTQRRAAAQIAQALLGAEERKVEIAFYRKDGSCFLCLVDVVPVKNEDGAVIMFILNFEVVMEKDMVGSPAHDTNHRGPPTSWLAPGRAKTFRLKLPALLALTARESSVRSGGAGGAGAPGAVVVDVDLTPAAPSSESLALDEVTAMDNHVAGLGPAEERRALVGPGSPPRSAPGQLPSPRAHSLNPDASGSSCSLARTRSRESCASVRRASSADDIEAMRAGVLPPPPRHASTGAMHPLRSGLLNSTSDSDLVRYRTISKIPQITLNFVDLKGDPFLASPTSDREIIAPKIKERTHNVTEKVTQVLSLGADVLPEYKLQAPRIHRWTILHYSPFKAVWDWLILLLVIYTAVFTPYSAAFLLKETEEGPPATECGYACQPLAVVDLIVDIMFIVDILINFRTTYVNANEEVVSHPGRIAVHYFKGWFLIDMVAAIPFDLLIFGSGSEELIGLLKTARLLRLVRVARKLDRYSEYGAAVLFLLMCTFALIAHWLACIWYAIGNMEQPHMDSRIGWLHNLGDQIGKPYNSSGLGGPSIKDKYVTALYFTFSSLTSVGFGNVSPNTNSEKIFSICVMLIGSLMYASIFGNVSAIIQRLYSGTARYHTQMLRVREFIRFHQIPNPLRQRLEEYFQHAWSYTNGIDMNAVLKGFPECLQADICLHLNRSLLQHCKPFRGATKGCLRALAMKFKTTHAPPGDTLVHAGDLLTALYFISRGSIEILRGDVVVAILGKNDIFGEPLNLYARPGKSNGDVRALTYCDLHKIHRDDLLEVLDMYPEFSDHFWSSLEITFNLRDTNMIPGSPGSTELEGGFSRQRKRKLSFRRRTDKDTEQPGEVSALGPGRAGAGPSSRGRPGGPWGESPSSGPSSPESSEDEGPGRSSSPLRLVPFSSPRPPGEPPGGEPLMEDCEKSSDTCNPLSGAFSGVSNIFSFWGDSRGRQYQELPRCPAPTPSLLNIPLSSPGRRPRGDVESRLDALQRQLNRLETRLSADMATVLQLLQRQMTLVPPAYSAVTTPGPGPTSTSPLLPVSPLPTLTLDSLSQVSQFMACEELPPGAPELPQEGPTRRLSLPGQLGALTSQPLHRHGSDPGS
Sequence of Motilin receptor (O43193 whole entry): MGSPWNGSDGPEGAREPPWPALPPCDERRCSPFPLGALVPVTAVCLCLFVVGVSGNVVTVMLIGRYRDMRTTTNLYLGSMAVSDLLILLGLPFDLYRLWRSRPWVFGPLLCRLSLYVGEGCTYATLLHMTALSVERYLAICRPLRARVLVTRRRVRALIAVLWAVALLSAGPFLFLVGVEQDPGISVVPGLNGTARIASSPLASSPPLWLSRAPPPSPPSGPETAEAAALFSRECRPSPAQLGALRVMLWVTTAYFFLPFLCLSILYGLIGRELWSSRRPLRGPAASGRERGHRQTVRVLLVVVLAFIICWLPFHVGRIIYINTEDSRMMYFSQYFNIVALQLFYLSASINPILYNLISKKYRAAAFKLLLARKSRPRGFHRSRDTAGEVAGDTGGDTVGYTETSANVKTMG
Sequence of Voltage-dependent L-type calcium channel subunit alpha-1C (P22002 whole entry): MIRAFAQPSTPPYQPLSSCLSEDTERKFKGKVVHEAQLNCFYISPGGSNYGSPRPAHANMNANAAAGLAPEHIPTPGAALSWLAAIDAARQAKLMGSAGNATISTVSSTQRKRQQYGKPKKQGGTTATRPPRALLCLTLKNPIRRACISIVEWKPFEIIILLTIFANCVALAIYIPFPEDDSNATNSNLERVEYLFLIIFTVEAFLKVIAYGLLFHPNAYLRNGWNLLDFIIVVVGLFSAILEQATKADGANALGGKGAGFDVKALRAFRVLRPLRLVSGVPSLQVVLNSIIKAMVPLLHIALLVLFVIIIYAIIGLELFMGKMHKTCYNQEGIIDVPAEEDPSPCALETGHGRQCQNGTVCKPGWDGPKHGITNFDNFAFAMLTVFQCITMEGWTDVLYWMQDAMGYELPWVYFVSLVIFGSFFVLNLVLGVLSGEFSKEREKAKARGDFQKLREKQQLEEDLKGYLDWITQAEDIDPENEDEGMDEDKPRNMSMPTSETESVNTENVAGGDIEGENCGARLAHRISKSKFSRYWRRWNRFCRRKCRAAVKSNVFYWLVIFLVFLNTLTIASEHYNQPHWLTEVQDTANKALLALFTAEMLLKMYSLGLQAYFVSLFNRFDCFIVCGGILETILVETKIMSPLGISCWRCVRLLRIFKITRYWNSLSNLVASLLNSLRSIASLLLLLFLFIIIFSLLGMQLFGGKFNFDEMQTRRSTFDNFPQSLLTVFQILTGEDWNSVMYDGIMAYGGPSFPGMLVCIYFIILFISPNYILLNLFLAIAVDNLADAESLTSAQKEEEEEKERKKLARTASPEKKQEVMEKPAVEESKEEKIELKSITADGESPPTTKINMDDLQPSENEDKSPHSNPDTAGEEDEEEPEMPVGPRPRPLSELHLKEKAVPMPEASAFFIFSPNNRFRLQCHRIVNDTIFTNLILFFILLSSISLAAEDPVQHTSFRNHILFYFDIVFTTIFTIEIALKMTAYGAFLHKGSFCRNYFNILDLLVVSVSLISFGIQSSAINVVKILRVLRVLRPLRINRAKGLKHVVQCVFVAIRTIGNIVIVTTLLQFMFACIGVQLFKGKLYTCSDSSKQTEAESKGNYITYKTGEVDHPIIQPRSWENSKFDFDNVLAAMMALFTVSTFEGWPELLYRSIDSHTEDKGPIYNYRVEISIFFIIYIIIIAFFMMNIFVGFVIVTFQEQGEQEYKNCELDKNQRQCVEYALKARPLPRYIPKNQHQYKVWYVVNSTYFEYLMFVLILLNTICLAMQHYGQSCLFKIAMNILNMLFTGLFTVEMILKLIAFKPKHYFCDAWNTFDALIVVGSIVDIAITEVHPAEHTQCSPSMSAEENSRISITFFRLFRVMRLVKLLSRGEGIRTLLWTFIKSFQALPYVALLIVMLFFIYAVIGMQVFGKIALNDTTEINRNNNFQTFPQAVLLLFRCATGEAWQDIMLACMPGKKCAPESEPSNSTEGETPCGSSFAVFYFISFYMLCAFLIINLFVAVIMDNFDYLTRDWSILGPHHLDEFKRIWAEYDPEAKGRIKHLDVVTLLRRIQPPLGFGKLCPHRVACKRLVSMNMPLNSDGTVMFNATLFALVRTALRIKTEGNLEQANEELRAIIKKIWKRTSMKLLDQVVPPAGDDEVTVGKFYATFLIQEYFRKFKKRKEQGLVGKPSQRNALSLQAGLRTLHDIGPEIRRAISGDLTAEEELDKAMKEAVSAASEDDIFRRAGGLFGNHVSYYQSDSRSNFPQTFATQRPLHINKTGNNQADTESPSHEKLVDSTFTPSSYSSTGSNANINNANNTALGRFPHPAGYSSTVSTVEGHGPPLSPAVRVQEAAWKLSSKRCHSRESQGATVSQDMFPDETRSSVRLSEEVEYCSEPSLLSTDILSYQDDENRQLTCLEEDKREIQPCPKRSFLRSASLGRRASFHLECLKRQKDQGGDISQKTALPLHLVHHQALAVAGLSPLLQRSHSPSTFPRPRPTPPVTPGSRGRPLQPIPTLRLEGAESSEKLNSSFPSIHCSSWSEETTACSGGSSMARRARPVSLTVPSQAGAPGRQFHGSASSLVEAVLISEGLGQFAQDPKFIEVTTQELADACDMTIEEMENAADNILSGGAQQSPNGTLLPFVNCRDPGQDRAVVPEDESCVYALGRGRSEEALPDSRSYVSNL
Sequence of Sodium-dependent serotonin transporter (P31645 whole entry): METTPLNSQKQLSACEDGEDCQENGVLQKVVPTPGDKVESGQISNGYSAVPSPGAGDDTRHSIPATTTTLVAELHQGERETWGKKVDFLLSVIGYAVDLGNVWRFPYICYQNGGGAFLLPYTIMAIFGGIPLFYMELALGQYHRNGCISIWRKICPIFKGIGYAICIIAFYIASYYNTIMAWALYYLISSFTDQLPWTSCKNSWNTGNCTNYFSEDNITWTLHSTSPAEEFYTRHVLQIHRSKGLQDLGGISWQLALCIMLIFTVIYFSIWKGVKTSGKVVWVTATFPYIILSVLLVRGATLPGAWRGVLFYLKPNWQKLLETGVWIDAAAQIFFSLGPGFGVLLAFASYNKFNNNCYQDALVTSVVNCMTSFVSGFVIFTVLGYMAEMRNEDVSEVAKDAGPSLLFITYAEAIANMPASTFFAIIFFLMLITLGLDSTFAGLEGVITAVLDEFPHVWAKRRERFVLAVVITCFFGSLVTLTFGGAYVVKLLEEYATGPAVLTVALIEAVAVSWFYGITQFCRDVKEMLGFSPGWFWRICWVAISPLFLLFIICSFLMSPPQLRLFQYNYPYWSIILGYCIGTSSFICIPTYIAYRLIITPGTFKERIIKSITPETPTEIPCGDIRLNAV

**Q.** How did the AC50 [1] turn out when N#Cc1ccccc1-c1cc(-c2ccccn2)cn(-c2ccccc2)c1=O was run?
**A.** > 30 µM

**Q.** And the AC50 [2]?
**A.** > 30 µM

**Q.** And the AC50 [3]?
**A.** > 30 µM

**Q.** And the AC50 [4]?
**A.** > 30 µM

**Q.** What about the AC50 [5] of the same compound?
**A.** > 30 µM

**Q.** What about the AC50 [6] of the same compound?
**A.** > 30 µM

**Q.** What about the AC50 [7] of the same compound?
**A.** > 30 µM

**Q.** And the AC50 [8]?
**A.** > 30 µM

**Q.** What about the AC50 [9] of the same compound?
**A.** > 30 µM

**Q.** What about the AC50 [10] of the same compound?
**A.** > 30 µM

**Q.** What about the AC50 [11] of the same compound?
**A.** > 30 µM

**Q.** What about the AC50 [12] of the same compound?
**A.** > 30 µM

**Q.** What about the AC50 [13] of the same compound?
**A.** > 30 µM

**Q.** What about the AC50 [14] of the same compound?
**A.** > 30 µM

**Q.** What does the source list for CCC(C)(Oc1ccc(C2(c3ccc(OC(C)(CC)C(=O)O)cc3)CCCCC2)cc1)C(=O)O (stereo not drawn) [CLINOFIBRATE]?
**A.** AC50 [1]: > 30 µM; AC50 [2]: > 30 µM; AC50 [3]: > 30 µM; AC50 [4]: > 30 µM; AC50 [5]: > 30 µM; AC50 [6]: > 30 µM; AC50 [7]: > 30 µM; AC50 [8]: > 30 µM; AC50 [9]: > 30 µM; AC50 [10]: > 30 µM; AC50 [11]: > 30 µM; AC50 [12]: > 30 µM; AC50 [13]: > 30 µM; AC50 [14]: > 30 µM

**Q.** With CCN(CC)C(=O)C1CN2CCc3cc(OC)c(OC)cc3C2CC1OC(C)=O (stereo not drawn) [BENZQUINAMIDE] as the compound, how does the AC50 [1] read?
**A.** > 30 µM

**Q.** What about the AC50 [2] of the same compound?
**A.** > 30 µM

**Q.** What about the AC50 [3] of the same compound?
**A.** > 30 µM

**Q.** What about the AC50 [4] of the same compound?
**A.** > 30 µM

**Q.** What about the AC50 [5] of the same compound?
**A.** > 10 µM

**Q.** What about the AC50 [6] of the same compound?
**A.** > 30 µM

**Q.** And the AC50 [7]?
**A.** > 30 µM

**Q.** What about the AC50 [8] of the same compound?
**A.** > 30 µM

**Q.** And the AC50 [9]?
**A.** > 30 µM

**Q.** What about the AC50 [10] of the same compound?
**A.** 1.57 µM

**Q.** What about the AC50 [11] of the same compound?
**A.** > 30 µM

**Q.** What about the AC50 [12] of the same compound?
**A.** > 30 µM

**Q.** What about the AC50 [13] of the same compound?
**A.** > 30 µM

**Q.** What about the AC50 [14] of the same compound?
**A.** > 30 µM

**Q.** For CCCCC[C@H](O)/C=C/[C@H]1[C@H](O)CC(=O)[C@@H]1C/C=C\CCCC(=O)O [DINOPROSTONE], which AC50 [1] is on record?
**A.** > 30 µM

**Q.** And the AC50 [2]?
**A.** > 30 µM

**Q.** And the AC50 [3]?
**A.** > 30 µM

**Q.** What about the AC50 [4] of the same compound?
**A.** > 30 µM

**Q.** And the AC50 [5]?
**A.** > 30 µM

**Q.** And the AC50 [6]?
**A.** > 30 µM

**Q.** What about the AC50 [7] of the same compound?
**A.** > 30 µM

**Q.** What about the AC50 [8] of the same compound?
**A.** > 30 µM

**Q.** And the AC50 [9]?
**A.** > 30 µM

**Q.** What about the AC50 [10] of the same compound?
**A.** > 30 µM

**Q.** What about the AC50 [11] of the same compound?
**A.** > 30 µM

**Q.** What about the AC50 [12] of the same compound?
**A.** > 30 µM

**Q.** And the AC50 [13]?
**A.** > 30 µM

**Q.** And the AC50 [14]?
**A.** > 30 µM

**Q.** Which results are given for CCN(CC)CC(=O)Oc1ccc(NC(C)=O)cc1 [PROPACETAMOL]?
**A.** AC50 [1]: > 30 µM; AC50 [2]: > 30 µM; AC50 [3]: > 30 µM; AC50 [4]: > 30 µM; AC50 [5]: > 30 µM; AC50 [6]: > 30 µM; AC50 [7]: > 30 µM; AC50 [8]: > 30 µM; AC50 [9]: > 30 µM; AC50 [10]: > 30 µM; AC50 [11]: > 30 µM; AC50 [12]: > 30 µM; AC50 [13]: > 30 µM; AC50 [14]: > 30 µM

**Q.** Which results are given for O=C(CCCN1CCC(n2c(O)nc3ccccc32)CC1)c1ccc(F)cc1 [BENPERIDOL]?
**A.** AC50 [1]: > 30 µM; AC50 [2]: > 30 µM; AC50 [3]: > 30 µM; AC50 [4]: > 30 µM; AC50 [5]: > 30 µM; AC50 [6]: > 30 µM; AC50 [7]: > 30 µM; AC50 [8]: > 30 µM; AC50 [9]: > 30 µM; AC50 [10]: 0.12 µM; AC50 [11]: > 30 µM; AC50 [12]: 26 µM; AC50 [13]: > 30 µM; AC50 [14]: 0.11 µM

**Q.** Which AC50 [1] does the source give for CC(NCCc1ccc(O)cc1)C(O)c1ccc(O)cc1 (stereo not drawn) [RITODRINE] here?
**A.** 16.3 µM

**Q.** What about the AC50 [2] of the same compound?
**A.** > 30 µM

**Q.** And the AC50 [3]?
**A.** > 30 µM

**Q.** And the AC50 [4]?
**A.** > 30 µM

**Q.** What about the AC50 [5] of the same compound?
**A.** > 10 µM

**Q.** And the AC50 [6]?
**A.** > 30 µM

**Q.** And the AC50 [7]?
**A.** > 30 µM

**Q.** What about the AC50 [8] of the same compound?
**A.** > 30 µM

**Q.** And the AC50 [9]?
**A.** > 30 µM

**Q.** And the AC50 [10]?
**A.** > 30 µM

**Q.** What about the AC50 [11] of the same compound?
**A.** > 30 µM

**Q.** What about the AC50 [12] of the same compound?
**A.** > 30 µM

**Q.** What about the AC50 [13] of the same compound?
**A.** > 30 µM

**Q.** What about the AC50 [14] of the same compound?
**A.** > 30 µM

From ChEMBL document CHEMBL5291721, “A preclinical secondary pharmacology resource illuminates target-adverse drug reaction associations of marketed drugs” (Nat Commun, 2023)
